Laboratory results taken from patent US11413329B2, “Cancer cell trap” (BOARD OF REGENTS, THE UNIVERSITY OF TEXAS SYSTEM, priority 2012, dated 2022).

How the values were obtained:
[1] = In vivo release rate of chemotherapy drugs from hydrogel nanoparticle traps; details: from EPO-loaded hydrogel nanoparticles
Protocol: (§1) The fabrication of temperature sensitive hydrogel nanoparticles is described in the recent publication (Cai T, Hu P, Sun M, Zhou J, Tsai Y-T, Baker D W, Tang L. Novel thermogelling dispersions of polymer nanoparticles for controlled protein release. Nanomedicine 8 (8): 1301-8, 2012). The nanoparticles were loaded with EPO (600 international units/1 ml) in the presence or absence of doxorubicine (300 μg/m1) and paclitaxel (30 mg/ml). For that, EPO (600 international units), doxorubicine (300 μg) or paclitaxel (30 mg) was mixed with 50 μg of hydrogel nanoparticles at room temperature. After implantation, the average in vivo release rates for doxorubicin and paclitaxel were measured at 10 μg/day and 1 mg/day, respectively.

PC3 cells = assay: Cancer cell killing at implant sites of EPO+doxorubicin-loaded particles; type: in vivo; details: EPO+doxorubicin-loaded vs EPO-loaded particles, 1, 2, 4, and 7 days
Protocol: as §1
(§2) Further studies were carried out to determine whether the implantation of chemotherapy drug-loaded cancer cell traps can kill cancer cells at the implant sites. […] To quantify cell recruitment, tissue section images were taken using a Leica fluorescence microscope (Leica Microsystems Wetzlar GmbH, Wetzlar, Germany) equipped with a QImaging Retiga-EXi CCD camera (QImaging, Surrey, BC, Canada). The tissue section images at a magnification of 400× (viewing area 0.24 mm^2) were then used to quantify the cell numbers per view field by cell counter plugin of ImageJ processing program.

melanoma cells = assay: Cancer cell killing at implant sites of EPO+paclitaxel-loaded particles; type: in vivo, C57 mice; details: EPO+paclitaxel-loaded vs EPO-loaded particles, 1, 2, 4, and 7 days
Protocol: as §1, §2

| SMILES | average in vivo release rate ([1]; 300 μg/ml) [µg/day] | numbers of recruited PC3 cells at implant (PC3 cells) | average in vivo release rate ([1]; 30 mg/ml) [µg/day] | numbers of recruited melanoma cells at implant (melanoma cells) |
| --- | --- | --- | --- | --- |
| COc1cccc2c1C(=O)c1c(O)c3c(c(O)c1C2=O)C[C@@](O)(C(=O)CO)C[C@@H]3O[C@H]1C[C@H](N)[C@H](O)[C@H](C)O1 [doxorubicin] | 10 | substantially reduced |  |  |
| CC(=O)O[C@H]1C(=O)[C@@]2(C)[C@H]([C@H](OC(=O)c3ccccc3)[C@]3(O)C[C@H](OC(=O)[C@H](O)[C@@H](NC(=O)c4ccccc4)c4ccccc4)C(C)=C1C3(C)C)[C@]1(OC(C)=O)CO[C@@H]1C[C@@H]2O [paclitaxel] |  |  | 1000 | substantially reduced |
